Experimental data taken from the supplement of paper PMC10307832.

Assays:
Experiment in all cases: relative viability (nuclei count vs DMSO), 5 days (fraction); higher = more cells survive
Quizartinib + Dasatinib = compound: CC(C)(C)c1cc(NC(=O)Nc2ccc(-c3cn4c(n3)sc3cc(OCCN5CCOCC5)ccc34)cc2)no1 [Quizartinib] + Cc1nc(Nc2ncc(C(=O)Nc3c(C)cccc3Cl)s2)cc(N2CCN(CCO)CC2)n1 [Dasatinib] (partner 0.075 µM)
Summary of the method: (§1)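 Lung cancer cell lines in 1536-well plates got either a single drug or a fixed anchor-drug dose together with five library-drug doses (not always all listed) in √10 steps, by pin tool, on the day after seeding. Nuclei were counted after 5 days, and relative viability is the treated-to-vehicle ratio of nuclei counts. Values are medians of duplicate plates.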

YM155 + Bortezomib = compound: COCC[n+]1c2c(n(Cc3cnccn3)c1C)C(=O)c1ccccc1C2=O [YM155] + CC(C)C[C@H](NC(=O)[C@H](Cc1ccccc1)NC(=O)c1cnccn1)B(O)O [Bortezomib] (partner 0.002 µM)
Summary of the method: as §1

YM155 + Tozasertib = compound: COCC[n+]1c2c(n(Cc3cnccn3)c1C)C(=O)c1ccccc1C2=O [YM155] + Cc1cc(Nc2cc(N3CCN(C)CC3)nc(Sc3ccc(NC(=O)C4CC4)cc3)n2)n[nH]1 [Tozasertib] (partner 0.1 µM)
Summary of the method: as §1

YM155 + Pemetrexed = compound: COCC[n+]1c2c(n(Cc3cnccn3)c1C)C(=O)c1ccccc1C2=O [YM155] + Nc1nc2[nH]cc(CCc3ccc(C(=O)N[C@@H](CCC(=O)O)C(=O)O)cc3)c2c(=O)[nH]1 [Pemetrexed] (partner 0.2 µM)
Summary of the method: as §1

Cell Line	relative viability (Quizartinib + Dasatinib; first compound 0.001 µM)	relative viability (Quizartinib + Dasatinib; first compound 0.003162 µM)	relative viability (Quizartinib + Dasatinib; first compound 0.01 µM)	relative viability (Quizartinib + Dasatinib; first compound 0.03162 µM)	relative viability (Quizartinib + Dasatinib; first compound 0.1 µM)	relative viability (YM155 + Bortezomib; first compound 0.002 µM)	relative viability (YM155 + Bortezomib; first compound 0.006325 µM)	relative viability (YM155 + Bortezomib; first compound 0.02 µM)	relative viability (YM155 + Bortezomib; first compound 0.06325 µM)	relative viability (YM155 + Tozasertib; first compound 0.002 µM)	relative viability (YM155 + Tozasertib; first compound 0.006325 µM)	relative viability (YM155 + Tozasertib; first compound 0.02 µM)	relative viability (YM155 + Tozasertib; first compound 0.06325 µM)	relative viability (YM155 + Pemetrexed; first compound 0.002 µM)	relative viability (YM155 + Pemetrexed; first compound 0.006325 µM)	relative viability (YM155 + Pemetrexed; first compound 0.02 µM)	relative viability (YM155 + Pemetrexed; first compound 0.06325 µM)
HCC-366	0.531	0.548	0.575	0.612	0.657	1.1	1.1	0.917	1.02	0.142	0.136	0.135	0.113	0.161	0.187	0.158	0.165
HCC-827	0.315	0.396	0.325	0.274	0.281	1.01	1.04	1.02	0.912	0.421	0.416	0.448	0.475	0.301	0.328	0.253	0.303
HOP-62	0.564	0.589	0.638	0.652	0.662	0.737	0.752	0.763	0.696	0.384	0.383	0.391	0.354	0.372	0.365	0.325	0.289
IA-LM						0.806	0.78	0.874	0.737								
LC-2-ad	0.48	0.799	0.546		0.5	0.975	1.03	1.02	0.947	0.469	0.425	0.438	0.299	0.287	0.248	0.28	0.262
LCLC-97TM1	0.856	0.735	0.842	0.892	0.738	0.313	0.74	0.621	0.185	0.197	0.202	0.227	0.22		0.193	0.181	0.18
LK-2	0.31		0.313	0.205	0.284					0.154	0.188	0.208	0.203	0.276	0.287	0.263	0.364
NCI-H358	0.136	0.188	0.164	0.167	0.144					0.111	0.126	0.103	0.0626	0.181	0.172	0.167	0.127
NCI-H522	0.861	0.861	1.11	0.794	0.882					0.522	0.557	0.599	0.582	0.841	0.938	0.92	0.899
NCI-H727		0.377	0.411	0.322	0.318	0.88	0.771	0.924	0.977	0.38	0.721	0.615	0.7				
NCI-H1299						1.02	1.01	1	1								
NCI-H1395	0.384	0.418	0.388	0.421	0.413					0.788	0.779	0.814	0.777	0.857	0.737	1.03	0.906
NCI-H1563	0.523	0.505	0.458	0.468	0.493	0.974	0.926	0.907	0.989					0.753	0.726	0.86	0.745
NCI-H1623	0.502	0.627	0.507	0.623	0.598					0.434	0.461	0.431	0.425				
NCI-H1703						0.283	0.323	0.322	0.198								
NCI-H1792		0.742	0.84	0.658	0.836	0.816	0.97	0.943	1					0.713	0.762	0.805	0.971
NCI-H1793	0.357	0.381	0.356	0.392	0.327					0.385	0.38	0.369	0.32	0.708	0.896	1.03	0.954
NCI-H1944	0.214	0.217	0.204	0.199	0.224					0.253	0.279	0.259	0.232	0.74	0.559	0.587	0.641
NCI-H2170	0.721	0.422	0.591	0.625	0.497					0.831	0.792	0.784	0.722	0.253	0.256	0.271	0.264
NCI-H2342	0.31	0.314	0.308	0.285	0.316					0.477	0.566	0.541	0.479	0.75	0.742	0.764	0.788
SK-MES-1	0.337	0.354	0.404		0.273					0.853	0.866	0.483	0.267	0.937	1.03	0.955	0.291
SW 900	0.557	0.294		0.563	0.616					0.816	0.553	0.588	0.45		0.492	0.489	0.47
